In patent publication US20230203060A1 (GENFLEET THERAPEUTICS (SHANGHAI) INC., priority 2020, published 2023):
Structures can show the parent of a compound that is named as a salt.

Each compound was assayed on KRAS G12C mutant NCI-H358 cells (assay: Cell proliferation inhibition experiment, 3D spheroid, CellTiter-Glo, NCI-H358). Conditions: Homo sapiens, NCI-H358, 120 h, NCI-H358 (KRAS G12C mutant) 3D spheroid, 5 days with compound, CellTiter-Glo; read-out: H358 IC50.
Assay type: cell-based, human
Description: Raw materials and instruments: NCI-H358 purchased from ATCC; article number: CRL-5807; batch number: 70010825; A549 purchased from ATCC; article number: CCL-185; batch number: 70007820; RPMI1640 purchased from Gibco; article number: 11875-093; batch number: 2152748; F-12K purchased from Gibco; article number: 21127-022; batch number: 2185853; FBS purchased from Gibco; article number: 10099-141; batch number: 2109290CP; PS purchased from Gibco; article number: 15140-122; batch number: 2145451; Trypsin-EDTApurchased from Gibco; article number: 25200-072; batch number: 2085552; CellTiter Glo working solution purchased from Promega; article number: G9683; batch number: 398478; DMSO purchased from VWR AMRESCO; article number: 0231-500ML; batch number: 18C0656168; 384-well spheroid plate purchased from Corning; article number: 3830; batch number: 27519032; white opaque 384-well plate purchased from Corning; article number: 3570; batch number: 26819023; microplate reader purchased from PerkinElmer; model: Envision MLD2105-0020; equipment number 1050369.
NCI-H358 is a KRAS G12C mutant human non-small cell lung cancer cell line, cultured in 10% FBS RPMI-1640+1% PS culture medium; and A549 is a KRAS G12S mutant human lung adenocarcinoma cell line, cultured in 10% FBS F-12K+1% PS culture medium. Cells at logarithmic growth stage were taken, digested with trypsin-EDTA, then collected and counted. H358 was adjusted to 1.8 E4 cells/mL with 2% FBS RPMI-1640 culture medium, and A549 was adjusted to 8.9 E3 cells/mL with 2% FBS F-12K culture medium; 800 (45 μL) H358 or 400 (45 μL) A549 were inoculated respectively in a 384-well spheroid plate and cultured overnight to establish a 3D cell model. A 3.16-fold gradient concentration stock solution of 1000× compound was prepared with DMSO, and diluted 100-fold to 10× compound stock solution with 2% FBS culture medium. On the second day after cell inoculation, 5 μL of 10× compound stock solution was added to each cell culture well, with a final concentration of 1× and a DMSO content of 0.1%. DMSO was used as experimental control (control), and 2% FBS culture medium was used as blank control (blank). After 5 days of compound cell culture, 25 μL of CellTiter-Glo working solution was added to each well, mixed well at 400 rpm and incubated for 30 minutes. After standing at room temperature for 30 minutes, 40 μL of the mixed solution was transferred to a white opaque 384-well plate, and the luminescence chemiluminescence value was read with a microplate reader. The cell proliferation inhibition rate IR (%)=(RLU control -RLU compound)/(RLU control -RLU blank) x100% was calculated. The gradient dilution concentration of the compound and the corresponding cell proliferation inhibition rate were fitted by Prism 6 four-parameter method, and the IC50 value was calculated. The inhibitory activity of the compounds prepared in the above embodiments of the present disclosure on KRAS G12C mutant NCI-H358 cells was 0.0001 μM to 0.5 μM; the inhibitory activity of some compounds on KRAS G12C mutant NCI-H358 cells was 0.001 μM to 0.1 μM or 0.001 μM to 0.05 μM.

| Structure (SMILES) | IC50 [nM] |
| --- | --- |
| C=CC(=O)N1CCN2C(=O)c3c(N4CCN(C5COC5)C[C@H]4C)nc(-c4c(O)cccc4F)c(Cl)c3OC[C@H]2C1 (single isomer, unassigned) [Z239-2] | 55.8 |
| C=CC(=O)N1CCN2C(=O)c3c(C4=CCN(C)CC4C)nc(-c4c(O)cccc4F)c(Cl)c3OC[C@H]2C1 (stereo partly drawn) [Z304, (6aR)-8-acryloyl-4-chloro-1-(1,3-dimethyl-1,2,3,6-tetrahydropyridin-4-yl)-3-(2-fluoro-6-hydroxyphenyl)-6,6a,7,8,9,10-hexahydro-12H-pyrazino[2,1-c]pyrido[3,4-f]oxazepin-12-one] | 161 |
| C=CC(=O)N1CCN2C(=O)c3c(N4C[C@H](C)O[C@@H](C)C4)nc(-c4c(O)cccc4F)c(Cl)c3OC[C@H]2C1 [Z248-1, (6aR)-8-acryloyl-1-((2S,6S)-2,6-dimethylmorpholino)-4-chloro-3-(2-fluoro-6-hydroxyphenyl)-6,6a,7,8,9,10-hexahydro-12H-pyrazino[2,1-c]pyrido[3,4-f][1,4]oxazepin-12-one] | 234 |
| C=CC(=O)N1CCN2C(=O)c3c(N4Cc5cnn(C)c5[C@@H]4C)nc(-c4c(O)cccc4F)c(Cl)c3OC[C@H]2C1 (single isomer, unassigned) [Z292S, trifluoroacetate] | 37.3 |
| C=CC(=O)N1CCN2C(=O)C3=C(OC[C@H]2C1)C(C)=C(c1c(O)cccc1F)CN3N1C[C@@H](O)CC1(C)C (single isomer, unassigned) [Z336-1] | 43 |
| C=CC(=O)N1CCN2C(=O)c3c(N4CCOCC4)nc(-c4nc(N)ccc4C(F)(F)F)c(Cl)c3OC[C@H]2C1 [Z267] | 31.3 |
| C=CC(=O)N1CCN2C(=O)c3c(N4CCOC(C)(C)C4)nc(-c4c(C)ccc5[nH]ncc45)c(F)c3OC[C@H]2C1 [Z238, (6aR)-8-acryloyl-1-(2,2-dimethylmorpholino)-4-fluoro-3-(5-methyl-1H-indazol-4-yl)-6,6a,7,8,9,10-hexahydro-12H-pyrazino[2,1-c]pyrido[3,4-f][1,4]oxazepin-12-one] | 285 |
| C=CC(=O)N1CCN2C(=O)c3c(N4[C@H](C)COC[C@@H]4C)nc(-c4c(O)cccc4F)c(Cl)c3OC[C@H]2C1 [Z252-1, (6aR)-8-acryloyl-1-(3R,5S-dimethylmorpholino)-4-chloro-3-(2-fluoro-6-hydroxyphenyl)-6,6a,7,8,9, 10-hexahydro-12H-pyrazino[2,1-c]pyrido[3,4-f][1,4]oxazepin-12-one] | 144 |
| C=CC(=O)N1CCN2C(=O)c3c(cc(-c4c(O)cccc4F)nc3N3CCOC(C)(C)C3)OC[C@H]2C1 [Z263, (6aR)-8-acryloyl-1-(2,2-dimethylmorpholino)-3-(2-fluoro-6-hydroxyphenyl)-6,6a,7,8,9,10-hexahydro-12H-pyrazino[2,1-c]pyrido[3,4-f][1,4]oxazepin-12-one] | 69 |
| C=CC(=O)N1CCN2C(=O)c3c(N4CCCC(C)C4C)nc(-c4c(O)cccc4F)c(Cl)c3OC[C@H]2C1 (stereo partly drawn) [Z99, (6aR)-8-acryloyl-4-chloro-1-(2,3-dimethylpiperidin-1-yl)-3-(2-fluoro-6-hydroxyphenyl)-6,6a,7,8,9,10-hexahydro-12H-pyrazino[2,1-c]pyrido[3,4-f][1,4]oxazepin-12-one] | 26.3 |
| C=CC(=O)N1CCN2C(=O)c3c(OCC4N(C)CCC4(C)C)nc(-c4c(O)cccc4F)c(Cl)c3OC[C@H]2C1 (stereo partly drawn) [Z110, (6aR)-8-acryloyl-4-chloro-1-((1,3,3-trimethyltetrahydropyrrol-2-yl)methoxy)-3-(2-fluoro-6-hydroxyphenyl)-6,6a,7,8,9,10-hexahydro-12H-pyrazino[2,1-c]pyrido[3,4-f][1,4]oxazepin-12-one] | 44.9 |
| C=CC(=O)N1CCN2C(=O)c3c(N4Cc5nn(C)cc5[C@H]4C)nc(-c4c(O)cccc4F)c(Cl)c3OC[C@H]2C1 (single isomer, unassigned) [Z345-1] | 45.2 |
| C=CC(=O)N1CCN2C(=O)c3c(N4C[C@@H](C)N(C)[C@@H](C)C4)nc(-c4c(O)cccc4F)c(Cl)c3OC[C@H]2C1 [Z246, (6aR)-8-acryloyl-4-chloro-3-(2-fluoro-6-hydroxyphenyl)-1-((3S,5R)-3,4,5-trimethylpiperazin-1-yl)-6,6a,7,8,9,10-hexahydro-12H-pyrazino[2,1-c]pyrido[3,4-f][1,4]oxazepin-12-one] | 35 |
| C=CC(=O)N1CCN2C(=O)c3c(N4C(C)COCC4C)nc(-c4c(O)cccc4F)c(Cl)c3OC[C@H]2C1 (stereo partly drawn) [Z252, (6aR)-8-acryloyl-1-(3,5-dimethylmorpholino)-4-chloro-3-(2-fluoro-6-hydroxyphenyl)-6,6a,7,8,9,10-hexahydro-12H-pyrazino[2,1-c]pyrido[3,4-f][1,4]oxazepin-12-one] | 128 |

Results, then the compound that gave them:

| IC50 [nM] | Structure (SMILES) |
| --- | --- |
| 27 | C=CC(=O)N1CCN2C(=O)c3c(N4C[C@H](O)CC4(C)C)nc(-c4c(O)cccc4F)c(F)c3OC[C@H]2C1 (single isomer, unassigned) [Z256-2] |
| 32 | C=CC(=O)N1CCN2C(=O)c3c(N4CCOC(C)(C)C4)nc(-c4c(O)cccc4F)c(F)c3OC[C@H]2C1 [Z255, (6aR)-8-acryloyl-1-(2,2-dimethylmorpholino)-4-fluoro-3-(2-fluoro-6-hydroxyphenyl)-6,6a,7,8,9,10-hexahydro-12H-pyrazino[2,1-c]pyrido[3,4-f][1,4]oxazepin-12-one] |
| 291 | C=CC(=O)N1CCN2C(=O)c3c(N4CCC45CCC5)nc(-c4c(O)cccc4F)c(Cl)c3OC[C@H]2C1 [Z309, (6aR)-8-acryloyl-4-chloro-3-(2-fluoro-6-hydroxyphenyl)-1-(1-azaspiro[3.3]heptan-1-yl)-6,6a,7,8,9,10-hexahydro-12H-pyrazino[2,1-c]pyrido[3,4-f][1,4]oxazepin-12-one] |
| 185 | C=CC(=O)N1CCN2C(=O)c3c(N4CCC[C@]4(C)CO)nc(-c4c(O)cccc4F)c(Cl)c3OC[C@H]2C1 [Z279-1] |
| 137 | C=CC(=O)N1CCN2C(=O)c3c(N4CCOCC4)nc(-c4c(O)cccc4F)c(F)c3OC[C@H]2C1 [Z329, (6aR)-8-acryloyl-1-(morpholino)-4-fluoro-3-(2-fluoro-6-hydroxyphenyl)-6,6a,7,8,9,10-hexahydro-12H-pyrazino[2,1-c]pyrido[3,4-f][1,4]oxazepin-12-one] |
| 19 | C=CC(=O)N1CCN2C(=O)c3c(N4CCOCC45CCC5)nc(-c4c(O)cccc4F)c(Cl)c3OC[C@H]2C1 [Z90, (6aR)-8-acryloyl-4-chloro-3-(2-fluoro-6-hydroxyphenyl)-1-(8-oxa-5-azaspiro[3.5]nonan-5-yl)-6,6a,7,8,9,10-hexahydro-12H-pyrazino[2,1-c]pyrido[3,4-f][1,4]oxazepin-12-one] |
| 54.1 | C=CC(=O)N1CCN2C(=O)c3c(N4CCN5CCC[C@H]5C4)nc(-c4c(O)cccc4F)c(Cl)c3OC[C@H]2C1 [Z317-1, (6aR)-8-acryloyl-4-chloro-3-(2-fluoro-6-hydroxyphenyl)-1-((S)-hexahydropyrrolo[1,2-a]pyrazin-2(1H)-yl)-6,6a,7,8,9,10-hexahydro-12H-pyrazino[2,1-c]pyrido[3,4-f][1,4]oxazepin-12-one] |
